This note sets out measurements from patent EP0490818B1, “6-CYCLOHEXYL-2'-0-METHYL-ADENOSINE HYDRATE AND USES THEREOF” (Novartis AG, priority 1990, dated 1992).

Where two headings read alike, the source gives them in different places.

Experiment [1] deals with T1, A1 receptor (Sus scrofa, UniProt I3LEN5).
T1 sequence (I3LEN5 1-326): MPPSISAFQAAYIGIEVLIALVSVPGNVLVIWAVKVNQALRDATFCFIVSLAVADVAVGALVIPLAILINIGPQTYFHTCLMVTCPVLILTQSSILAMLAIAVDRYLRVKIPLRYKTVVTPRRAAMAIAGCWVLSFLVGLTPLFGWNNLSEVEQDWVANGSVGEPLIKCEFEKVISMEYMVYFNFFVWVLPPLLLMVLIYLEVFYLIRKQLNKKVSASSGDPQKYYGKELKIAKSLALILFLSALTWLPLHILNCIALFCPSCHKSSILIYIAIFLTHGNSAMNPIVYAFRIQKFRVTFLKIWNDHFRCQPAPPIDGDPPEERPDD
Briefly: biochemical.
Protocol: (§1) Pig striatal membranes were prepared as previously described by H. Bruns et al. in Molecular Pharmacology 29 (1986) pages 331-344. ^3H-NECA, a non-selective adenosine receptor agonist was used to label both A1 and A2 receptors. IC50 values were derived from the displacement curves by weighted non-linear least-square curve fitting to the Langmuir equation and pKD values calculated.

For another experiment, the target named is T2, A2 receptor (Sus scrofa, UniProt K9IW67).
T2 construct: Pig striatal membranes were prepared as previously described; from tissue; host or cells: pig striatum (membranes)
Briefly: Affinity for adenosine receptors, displacement of 3H-NECA binding in striatal membranes (A2). More on the design: species or system Pig. In general terms: In a radioligand displacement assay an active substance lowers the binding of a labelled ligand.

For experiment [2], the system named is A1 receptor. Conditions: ratio of A2 KD to A1 KD, pig striatal membranes.
Protocol: as §1
The nature of experiment [3]: Plasma free fatty acids and triglycerides in the monkey (dyslipidemias with elevated serum triglycerides). It is filed as in vivo. Conditions: Rhesus monkey. The text has this:
Several studies have shown a positive correlation between serum triglyceride levels and the risk for coronary heart disease (CHD) (Grundy, in Cholesterol and Atherosclerosis: Diagnosis and Treatment, Lippincott, Philadelphia (1990)). The value of reducing elevated triglyceride levels as an approach to reducing the risk of CHD emerged from the Helsinki Heart Study where, following treatment with gemfibrozil, the greatest reduction in serious coronary events occured in Type IIB hyperlipidemic patients in whom both LDL-cholesterol and total serum triglycerides were elevated.

T2 sequence (K9IW67 1-409): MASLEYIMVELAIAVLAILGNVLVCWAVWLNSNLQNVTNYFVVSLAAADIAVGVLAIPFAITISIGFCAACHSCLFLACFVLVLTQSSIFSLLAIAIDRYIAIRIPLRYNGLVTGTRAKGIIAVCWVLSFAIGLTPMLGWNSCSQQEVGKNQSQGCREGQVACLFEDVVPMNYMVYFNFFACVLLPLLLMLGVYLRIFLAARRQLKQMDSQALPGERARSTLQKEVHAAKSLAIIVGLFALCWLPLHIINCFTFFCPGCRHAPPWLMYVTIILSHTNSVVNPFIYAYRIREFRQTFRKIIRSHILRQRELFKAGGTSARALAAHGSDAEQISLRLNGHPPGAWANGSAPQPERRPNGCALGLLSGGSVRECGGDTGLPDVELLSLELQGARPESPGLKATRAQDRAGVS
Protocol for A2 receptor: as §1

Consider `CCNC(=O)[C@H]1O[C@@H](n2cnc3c(N)nc(NCCc4ccc(CCC(=O)O)cc4)nc32)[C@H](O)[C@@H]1O` [CGS 21680, 2-[p-(2-Carboxyethyl)phenethylamino]-5'-N-ethyl carboxamido-adenosine], for which, on A1 receptor [1], the Kd – broadly, the constant that tells how readily two partners part at equilibrium – worked out at 4.36 ± 1.08 µM.

`Nc1nc(Nc2ccccc2)nc2c1ncn2[C@@H]1O[C@H](CO)[C@@H](O)[C@H]1O` [CV 1808, 2-Phenylaminoadenosine, reference compound]: the Kd is 269 ± 70 nM on A2 receptor (Pig striatal membranes, 3H-NECA label, mean ± spread, read-out: A2 (KD;nM)) and 2.46 ± 0.757 µM at A1 receptor [1]. Moreover, the “A1:A2 selectivity” value in the experiment with A1 receptor [2] is 0.1.

In turn, `CO[C@@H]1[C@H](O)[C@@H](CO)O[C@H]1n1cnc2c(NC3CCCCC3)ncnc21` [Compound No. 7 1.5 H2O, 6-cyclohexyl-2'-O-methyl-adenosine 1.5 hydrate] registered a Kd at A2 receptor of 24500 ± 5160 nM. Further, in experiment [3], the “plasma free fatty acids” value was “substantial and long-lasting falls”; the plasma triglycerides entry was “substantial and long-lasting falls”. Also, the “A1:A2 selectivity” value in the experiment with A1 receptor [2] is 1090. The affinity at A1 receptor [1], expressed as Kd, was 0.023 ± 0.002 µM.
